Measurements: US20240270699A1, “COMPOUNDS HAVING N-ARYLPYRIMIDIN-2-AMINE DERIVATIVES AS THERAPEUTIC AGENTS” (Lomond Therapeutics, Inc., priority 2021, published 2024)

What follows are molecules tested against T1, recombinant HPK1 protein (Homo sapiens, UniProt Q92918) (assay: Primary assay of HPK1 enzymatic activity inhibition (ADP-Glo luminescence)). Details: recombinant HPK1, MBP substrate, 1 hour at room temperature.
T1 construct: purchased Promega V6398
T1 sequence (Q92918 1-346 limits assumed): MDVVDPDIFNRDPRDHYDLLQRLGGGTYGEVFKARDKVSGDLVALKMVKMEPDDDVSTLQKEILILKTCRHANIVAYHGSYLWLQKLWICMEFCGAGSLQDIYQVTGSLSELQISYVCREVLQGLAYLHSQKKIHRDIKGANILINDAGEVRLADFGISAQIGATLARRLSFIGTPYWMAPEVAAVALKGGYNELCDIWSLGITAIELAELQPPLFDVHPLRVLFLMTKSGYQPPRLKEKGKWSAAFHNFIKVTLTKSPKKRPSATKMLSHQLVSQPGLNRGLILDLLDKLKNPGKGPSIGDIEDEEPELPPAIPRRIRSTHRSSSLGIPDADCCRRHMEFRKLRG
Format: biochemical
`CS(=O)(=O)c1ccc(Nc2ncc(C#N)c(N[C@H](CO)c3ccccc3)n2)cc1F` [Compound 2, 2-{[3-fluoro-4-(methylsulfonyl)phenyl]amino}-4-{[(1S)-2-hydroxy-1-phenylethyl]amino}pyrimidine-5-carbonitrile] was tested, and the IC50 was ≥ 500 nM. With `CCOC(=O)c1cnc(Nc2ccc(C(N)=O)c(C)c2)nc1N[C@H](CO)c1ccccc1` [Compound 10, Ethyl 2-(4-carbamoyl-3-methyl-anilino)-4-[[(1S)-2-hydroxy-1-phenyl-ethyl]amino]pyrimidine-5-carboxylate] the IC50 was 50 to 200 nM. In the case of `Cc1cc(Nc2ncc([N+](=O)[O-])c(N[C@H](CO)c3ccccc3)n2)ccc1S(C)(=O)=O` [Compound 18, (2S)-2-[[2-(3-methyl-4-methylsulfonyl-anilino)-5-nitro-pyrimidin-4-yl]amino]-2-phenyl-ethanol], the IC50 is reported as 200 to 500 nM. In the case of `CS(=O)(=O)c1ccc(Nc2ncc(C(=O)O)c(N[C@H](CO)c3ccccc3)n2)cc1F` [Compound 42, 2-{[3-fluoro-4-(methylsulfonyl)phenyl]amino}-4-{[(1S)-2-hydroxy-1-phenylethyl]amino}pyrimidine-5-carboxylic Acid], the IC50 is reported as ≥ 500 nM. For `CCOC(=O)c1cnc(Nc2ccc(C(=O)NC)c(C)c2)nc1N[C@H](CO)c1ccccc1` [Compound 48, Ethyl 4-[[(1S)-2-hydroxy-1-phenyl-ethyl]amino]-2-[3-methyl-4-(methylcarbamoyl)anilino]pyrimidine-5-carboxylate], the IC50 was ≥ 500 nM. In the case of `CCOC(=O)c1cnc(Nc2ccc(C(=O)O)c(OC)c2)nc1N[C@H](CO)c1ccccc1` [Compound 62, 4-[[5-ethoxycarbonyl-4-[[(1S)-2-hydroxy-1-phenyl-ethyl]amino]pyrimidin-2-yl]amino]-2-methoxy-benzoic acid], the IC50 is reported as 200 to 500 nM. For `CN1CCc2cc(Nc3ncc(-c4nnco4)c(N[C@H](CO)c4ccccc4)n3)ccc2C1=O` [Compound 89, 6-[[4-[[(1S)-2-hydroxy-1-phenyl-ethyl]amino]-5-(1,3,4-oxadiazol-2-yl)pyrimidin-2-yl]amino]-2-methyl-3,4-dihydroisoquinolin-1-one], the IC50 was < 50 nM. In the case of `CCOC(=O)c1cnc(Nc2ccc(S(C)(=O)=O)c(F)c2)nc1N[C@H](C)c1ccccc1` [Compound 97, ethyl 2-(3-fluoro-4-methylsulfonyl-anilino)-4-[[(1R)-1-phenylethyl]amino]pyrimidine-5-carboxylate], the IC50 is reported as ≥ 500 nM. With `CNC(=O)c1cnc(Nc2ccc(C(F)(F)F)c(Cl)c2)nc1N[C@H](CO)c1ccccc1` [Compound 132, 2-{[3-chloro-4-(trifluoromethyl)phenyl]amino}-4-{[(1S)-2-hydroxy-1-phenylethyl]amino}-N-methylpyrimidine-5-carboxamide] the IC50 was ≥ 500 nM. For `Cc1noc(-c2cnc(Nc3ccc4c(c3)CCN(C)C4=O)nc2N[C@H](CO)c2ccccc2)n1` [Compound 183, 6-[[4-[[(1S)-2-hydroxy-1-phenyl-ethyl]amino]-5-(3-methyl-1,2,4-oxadiazol-5-yl)pyrimidin-2-yl]amino]-2-methyl-3,4-dihydroisoquinolin-1-one], the IC50 was < 50 nM. `CCOC(=O)c1cnc(Nc2ccc(C(=O)N(C)C)c(OC)c2)nc1N[C@H](CO)c1ccccc1` [Compound 247, Ethyl 2-[4-(dimethylcarbamoyl)-3-methoxy-anilino]-4-[[(1S)-2-hydroxy-1-phenyl-ethyl]amino]pyrimidine-5-carboxylate] gave an IC50 of 200 to 500 nM. With `CCOC(=O)c1cnc(Nc2ccc(C(F)(F)F)c(Cl)c2)nc1N[C@H](CO)c1ccccc1` [Compound 248, Ethyl 2-{[3-chloro-4-(trifluoromethyl)phenyl]amino}-4-{[(1S)-2-hydroxy-1-phenylethyl]amino}pyrimidine-5-carboxylate] the IC50 was ≥ 500 nM. In the case of `CCOC(=O)c1cnc(Nc2ccc(S(C)(=O)=O)c(F)c2)nc1N[C@H]1c2ccccc2C[C@H]1O` [Compound 298, ethyl 2-(3-fluoro-4-methylsulfonyl-anilino)-4-[[(1S,2R)-2-hydroxyindan-1-yl]amino]pyrimidine-5-carboxylate], the IC50 is reported as ≥ 500 nM. With `CCOC(=O)c1cnc(Nc2ccc(S(C)(=O)=O)cc2OC)nc1N[C@H](CO)c1ccccc1` [Compound 299, Ethyl 4-{[(1S)-2-hydroxy-1-phenylethyl]amino}-2-{[2-methoxy-4-(methylsulfonyl)phenyl]amino}pyrimidine-5-carboxylate] the IC50 was ≥ 500 nM. With `CCOC(=O)c1cnc(Nc2ccc3c(c2)CCN(C(C)C)C3=O)nc1N[C@H](CO)c1ccccc1` [Compound 316, Ethyl 4-[[(1S)-2-hydroxy-1-phenyl-ethyl]amino]-2-[(2-isopropyl-1-oxo-3,4-dihydroisoquinolin-6-yl)amino]pyrimidine-5-carboxylate] the IC50 was ≥ 500 nM. In the case of `CS(=O)(=O)c1ccc(Nc2ncc(C(=O)N3CCCC3)c(N[C@H](CO)c3ccccc3)n2)cc1F` [Compound 371, [2-(3-fluoro-4-methylsulfonyl-anilino)-4-[[(1S)-2-hydroxy-1-phenyl-ethyl]amino]pyrimidin-5-yl]-pyrrolidin-1-yl-methanone], the IC50 is reported as ≥ 500 nM. In the case of `CCOC(=O)c1cnc(Nc2ccc(S(C)(=O)=O)c(F)c2)nc1N1Cc2ccccc2CC1CO` (stereo not drawn) [Compound 388, ethyl 2-(3-fluoro-4-methylsulfonyl-anilino)-4-[3-(hydroxymethyl)-3,4-dihydro-1H-isoquinolin-2-yl]pyrimidine-5-carboxylate], the IC50 is reported as ≥ 500 nM. `CN(CCO)C(=O)c1cnc(Nc2ccc(S(C)(=O)=O)c(F)c2)nc1N[C@H](CO)c1ccccc1` [Compound 402, 2-(3-fluoro-4-methylsulfonyl-anilino)-N-(2-hydroxyethyl)-4-[[(1S)-2-hydroxy-1-phenyl-ethyl]amino]-N-methyl-pyrimidine-5-carboxamide] was tested, and the IC50 was ≥ 500 nM. In the case of `O=C(NC1CCCC1)c1cnc(Nc2ccc(F)c(-c3ccccc3)c2)nc1N[C@H](CO)c1ccccc1` [Compound 440, N-cyclopentyl-2-[(6-fluorobiphenyl-3-yl)amino]-4-{[(1S)-2-hydroxy-1-phenylethyl]amino}pyrimidine-5-carboxamide], the IC50 is reported as ≥ 500 nM. `CCOC(=O)c1cnc(Nc2ccc3c(c2)C(=O)NC(C(C)C)C(=O)N3)nc1N[C@H](CO)c1ccccc1` (stereo partly drawn) [Compound 467, Ethyl 4-[[(1S)-2-hydroxy-1-phenyl-ethyl]amino]-2-[(3-isopropyl-2,5-dioxo-3,4-dihydro-1H-1,4-benzodiazepin-7-yl)amino]pyrimidine-5-carboxylate] was tested, and the IC50 was ≥ 500 nM. `O=C(NC1CCCC1)c1cnc(Nc2ccc(C(F)(F)F)c(Cl)c2)nc1N[C@H](CO)c1ccccc1` [Compound 472, 2-{[3-chloro-4-(trifluoromethyl)phenyl]amino}-N-cyclopentyl-4-{[(1S)-2-hydroxy-1-phenylethyl]amino}pyrimidine-5-carboxamide] was tested, and the IC50 was ≥ 500 nM. For `CCOC(=O)c1cnc(Nc2ccc3c(c2)CNC3=O)nc1N[C@H](CO)c1ccccc1` [Compound 565, ethyl 4-[[(1S)-2-hydroxy-1-phenyl-ethyl]amino]-2-[(1-oxoisoindolin-5-yl)amino]pyrimidine-5-carboxylate], the IC50 was < 50 nM. In the case of `N#Cc1cnc(Nc2ccc3c(c2)CCNC3=O)nc1N[C@H](CO)c1ccccc1` [Compound 567, 4-[[(1S)-2-hydroxy-1-phenyl-ethyl]amino]-2-[(1-oxo-3,4-dihydro-2H-isoquinolin-6-yl)amino]pyrimidine-5-carbonitrile], the IC50 is reported as ≥ 500 nM. `CCOC(=O)c1cnc(Nc2ccc3c(c2)NC(=O)CCC3)nc1N[C@H](CO)c1ccccc1` [Compound 574, ethyl 4-[[(1S)-2-hydroxy-1-phenyl-ethyl]amino]-2-[(2-oxo-1,3,4,5-tetrahydro-1-benzazepin-8-yl)amino]pyimidine-5-carboxylate] was tested, and the IC50 was ≥ 500 nM. `CCOC(=O)c1cnc(N(c2ccc3c(c2)CCCNC3=O)c2ncc(C(=O)OCC)c(N[C@H](CO)c3ccccc3)n2)nc1N[C@H](CO)c1ccccc1` [Compound 576, ethyl 2-[[5-ethoxycarbonyl-4-[[(1S)-2-hydroxy-1-phenyl-ethyl]amino]pyrimidin-2-yl]-(1-oxo-2,3,4,5-tetrahydro-2-benzazepin-7-yl)amino]-4-[[(1S)-2-hydroxy-1-phenyl-ethyl]amino]pyrimidin-5-carboxylate] gave an IC50 of 50 to 200 nM. In the case of `CS(=O)(=O)c1ccc(Nc2ncc3[nH]c(=O)n([C@H](CO)c4ccccc4)c3n2)cc1F` [Compound 577, 2-(3-fluoro-4-methylsulfonyl-anilino)-9-[(1S)-2-hydroxy-1-phenyl-ethyl]-7H-purin-8-one], the IC50 is reported as ≥ 500 nM. With `C=Cc1noc(-c2cnc(Nc3ccc4c(c3)CCN(COCC[Si](C)(C)C)C4=O)nc2N[C@H](CO)c2ccccc2)n1` [Compound 580, 6-[[4-[[(1S)-2-hydroxy-1-phenyl-ethyl]amino]-5-(3-vinyl-1,2,4-oxadiazol-5-yl)pyrimidin-2-yl]amino]-2-(2-trimethylsilylethoxymethyl)-3,4-dihydroisoquinolin-1-one] the IC50 was < 50 nM.

These molecules were tested on Jurkat cells (assay: IL-2 release Jurkat assay (anti-CD3/anti-CD28 stimulation, IL-2 ELISA)). Details: Table C: Jurkat, 6 μM of tested compounds, activation with 400 ng/mL aCD3 + 400 ng/mL aCD28, 24 hours; stimulated vehicle = A.
Format: cell-based, human
`Cc1cc(Nc2ncc([N+](=O)[O-])c(N[C@H](CO)c3ccccc3)n2)ccc1S(C)(=O)=O` [Compound 18, (2S)-2-[[2-(3-methyl-4-methylsulfonyl-anilino)-5-nitro-pyrimidin-4-yl]amino]-2-phenyl-ethanol] was tested, and the “IL-2, pg/mL stimulated” value was “D (150 pg/mL≤IL-2)”.

Same assay, conditions: Table D: Jurkat, 6 μM of tested compounds, activation with 400 ng/mL aCD3 + 400 ng/mL aCD28, 24 hours; stimulated vehicle = B
In the case of `CCOC(=O)c1cnc(Nc2ccc(C(N)=O)c(C)c2)nc1N[C@H](CO)c1ccccc1` [Compound 10, Ethyl 2-(4-carbamoyl-3-methyl-anilino)-4-[[(1S)-2-hydroxy-1-phenyl-ethyl]amino]pyrimidine-5-carboxylate], the “IL-2, pg/mL stimulated” value is reported as “D (150 pg/mL≤IL-2)”.

Same assay, conditions: Table G: Jurkat, 1.0 μM of tested compounds, activation with 400 ng/mL aCD3 + 400 ng/mL aCD28, 24 hours
With `Cc1noc(-c2cnc(Nc3ccc4c(c3)CCN(COC(=O)C(C)(C)C)C4=O)nc2N[C@H](CO)c2ccccc2)n1` [Compound 581, [6-[[4-[[(1S)-2-hydroxy-1-phenyl-ethyl]amino]-5-(3-methyl-1,2,4-oxadiazol-5-l)pyrimidin-2-yl]amino]-1-oxo-3,4-dihydroisoquinolin-2-yl]methyl 2,2-dimethylpropanoate] the “IL-2, pg/mL stimulated” value was “D (150 pg/mL≤IL-2)”.
